A word on the melting point: it is the temperature, or range, at which the solid turns liquid.

Data set [1] deals with T1, androgen receptor (Rattus norvegicus, UniProt P15207).
T1 sequence (P15207 1-902): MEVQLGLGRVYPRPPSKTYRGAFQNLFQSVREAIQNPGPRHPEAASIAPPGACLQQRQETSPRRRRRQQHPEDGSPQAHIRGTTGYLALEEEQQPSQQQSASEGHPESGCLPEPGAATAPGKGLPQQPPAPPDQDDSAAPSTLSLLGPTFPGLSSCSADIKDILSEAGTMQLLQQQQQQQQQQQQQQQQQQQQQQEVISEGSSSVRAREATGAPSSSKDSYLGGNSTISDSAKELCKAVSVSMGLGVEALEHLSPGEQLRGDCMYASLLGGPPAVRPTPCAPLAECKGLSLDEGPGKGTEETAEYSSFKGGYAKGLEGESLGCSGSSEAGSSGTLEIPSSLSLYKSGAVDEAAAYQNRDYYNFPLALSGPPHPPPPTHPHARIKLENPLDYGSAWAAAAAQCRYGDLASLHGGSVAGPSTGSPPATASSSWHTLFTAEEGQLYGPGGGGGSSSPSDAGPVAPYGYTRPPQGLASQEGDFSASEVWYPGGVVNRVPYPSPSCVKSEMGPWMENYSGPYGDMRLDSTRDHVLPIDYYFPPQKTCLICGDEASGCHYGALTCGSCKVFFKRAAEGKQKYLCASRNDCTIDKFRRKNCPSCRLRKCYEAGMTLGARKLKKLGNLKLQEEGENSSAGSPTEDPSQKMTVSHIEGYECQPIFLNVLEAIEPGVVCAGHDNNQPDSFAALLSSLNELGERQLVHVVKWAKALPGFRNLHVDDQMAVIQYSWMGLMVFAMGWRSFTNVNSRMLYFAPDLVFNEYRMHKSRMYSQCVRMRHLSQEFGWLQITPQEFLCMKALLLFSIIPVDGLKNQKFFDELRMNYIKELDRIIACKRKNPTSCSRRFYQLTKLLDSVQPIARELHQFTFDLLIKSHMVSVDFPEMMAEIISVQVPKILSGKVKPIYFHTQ
The data set can be described thus: Relative binding affinity to the androgen receptor. The settings on record: from rat prostate; relative to methyltrienolone = 100%; value is for the free alcohol of the listed ester. As for the experimental part:
In addition to the foregoing, the androgenic potency and relative binding affinity to the androgen receptor of several free alcohols after subcutaneous administration of their corresponding esters was also determined.

The subject of data set [2] is ventral prostate weight. The data set can be described thus: Subcutaneous androgenic potency, ventral prostate weight assay in orchidectomized immature rats (injection daily for seven days). It is filed as in vivo, Sprague-Dawley rats. The settings on record: for Androgenic Potency (activity of corresponding alcohol): ventral prostate weight assay following subcutaneous administration, alcohol of G = 1.0 (assigned), value is for the free alcohol of the listed ester. Here is the method:
(§1) Immature (about 21-day-old) Sprague-Dawley rats were orchidectomized under anesthesia, and randomly assignee to groups of ten animals for each dose level of the active undergoing testing. Each active was dissolved in 10% ethanol/sesame oil and administered by gavage (oral) or subcutaneous injection each day for seven days beginning on the date of the orchidectomy. The animals were sacrificed 24 hours after the last dose, and the ventral prostate and seminal vesicles were excised, cleaned of fat and connective tissue, blotted on moist filter paper and weighed to the nearest 0.1 mg. Regression analysis was performed by conventional methods using a PROPHET data management system. Ventral prostate weight was used as the endpoint because it is the sensitive organ to androgenic stimulation.
as §1, with “by” for “by gavage (oral) or”, “mg. See, e.g., Hershberger, L. et al, Myotrophic Activity of 19-nortestosterone And Other Steroids Determined By Modified Levator And Muscle Method, Proc. Soc. Exptl. Bid. Med. 83 175–180 (1953).” for “mg.”, “system. See, e.g., Bliss, C., The Statistics of Bioassay (Academic Press, New York, 1952); Hollister, C., Nucleic Acids Res. 16 1873–75 (1988).” for “system.”
Immature (about 22-day-old) Sprague-Dawley male rats were orchidectomized under anesthesia, and randomly assignee to groups of ten animals for each dose level of the active undergoing testing. […] Illumination was controlled for 14 hour periods of light and 10 hours of darkness.
Each active was administered by subcutaneous injection of 0.6 mg of test material in aqueous suspending vehicle (ASV) and/or an oily vehicle (10% ethanol/sesame oil) on the day of surgery. Testosterone enanthate in sesame oil was used as a standard. The ventral prostate and seminal vesicles were excised, cleaned of fat and connective tissue, blotted on moist filter paper and weighed to the nearest 0.1 mg. Regression analysis was performed by conventional methods using a PROPHET data management system. Ventral prostate weight was used as the endpoint because it is the sensitive organ to androgenic stimulation.

Data set [3] has as its system ventral prostate weight. The data set can be described thus: Duration of androgenic activity after subcutaneous injection, ventral prostate weight over weeks in orchidectomized immature rats. The class given is in vivo, Sprague-Dawley rats. As for the experimental part:
as §1, with “was” for “was dissolved in 10% ethanol/sesame oil and”, “by” for “by gavage (oral) or”
Except for testosterone enanthate, each active was formulated in two different carriers: (1) an aqueous suspension and (2) in sesame oil. Testosterone enanthate was formulated using the sesame oil carrier only, because it exists as a liquid at room temperature and could not therefore be formulated as an aqueous suspension.
The carrier used to provide the aqueous suspension was formulated as follows: 1 g benzyl alcohol, 0.5 g sodium carboxylethyl cellulose 50, 0.376 g disodium hydrogen phosphate dihydrate, 1.495 g sodium dihydrogen phosphate dihydrate, with water for injection (WFI) being added to bring volume of the carrier up to 100 ml.
Each formulation was prepared at a concentration of 0.6 mg/0.2 ml.
Immature (about 21-day-old) Sprague-Dawley rats were orchidectomized under anesthesia, and randomly assignee to groups of 40 or more. Animals received a single subcutaneous injection of 0.6 mg of each ester in 0.2 ml of an aqueous suspending carrier and/or oily carrier (10% ethanol/90% sesame oil or ethyl oleate) on the date of the orchidectomy. In cases where the ester was not solid at room temperature, 10% ethanol/sesame oil or ethyl oleate was used as the carrier. In this example, the carrier used to provide the aqueous suspension was formulated as follows: 1 g benzyl alcohol, 0.5 g sodium carboxylethyl cellulose 50, 0.376 g disodium hydrogen phosphate dihydrate, 1.495 g sodium dihydrogen phosphate dihydrate, with water for injection (WFI) being added to bring volume of the carrier up to 100 ml.
Five animals from each group were sacrificed at weekly or biweekly intervals, and the ventral prostate and seminal vesicles were excised, cleaned of fat and connective tissue, blotted on moist filter paper and weighed to the nearest 0.1 mg.
Ventral prostate weight was used as the endpoint because it is the sensitive organ to androgenic stimulation. Regression analysis was performed by conventional methods using the PROPHET data management system previously identified.
Immature (about 21-day-old) Sprague-Dawley rats were orchidectomized under anesthesia, and randomly assignee to groups of 40 or more. Animals received a single subcutaneous injection of 0.6 mg of the undecanoate in 0.2 ml of an aqueous suspending carrier and/or oily carrier (10% ethanol/90% sesame oil containing 5 mg/ml chlorobutanol as a preservative, or ethyloleate) on the date of the orchidectomy. The enanthate ester was formulated using the 10% ethanol/sesame oil or ethyloleate carrier as a first standard, with the 10% ethanol/sesame oil carrier used as a second standard.
In this example, the carrier used to provide the aqueous suspension was formulated as follows: 1 g benzyl alcohol, 0.5 g sodium carboxylethyl cellulose 50, 0.376 g disodium hydrogen phosphate dihydrate, 1.495 g sodium dihydrogen phosphate dihydrate, with water for injection (WFI) being added to bring volume of the carrier up to 100 ml.
Immature (about 21-day-old) Sprague-Dawley rats were orchidectomized under anesthesia, and randomly assignee to groups of 40 or more. […] The enanthate ester was formulated using the 10% ethanol/sesame oil or ethyloleate carrier as a first standard, with the 10% ethanol/sesame oil carrier used as a second standard.

Regarding `C[C@]1(O)CC[C@H]2[C@@H]3CCC4=CC(=O)CCC4=C3C=C[C@@]21C` [methyltrienolone], in data set [1], the “Relative Binding Affinity (activity of corresponding alcohol)” value was found to be 100%. Besides, the “Androgenic Potency (activity of corresponding alcohol)” value in data set [2] came out at 5.0.
`C[C@@H]1CC2=CC(=O)CC[C@@H]2[C@@H]2[C@@H]1[C@@H]1CC[C@H](O)[C@@]1(C)C[C@@H]2C` gave a melting point of 155 to 157 °C.
With `CCCCC1CCC(C(=O)O[C@H]2CC[C@H]3[C@@H]4CCC5=CC(=O)CC[C@]5(C)[C@H]4CC[C@]23C)CC1` (some centres unmarked) [testosterone bucyclate, Testosterone bucyclate, reference compound], in data set [3] (1.0 mg/0.2 ml, aqueous suspension, ventral prostate weight), the “potency and long-term activity after subcutaneous injection versus 0.6 mg CDB-4386A in aqueous suspension (in words), FIG. 5” value is reported as “significantly less”. Also, in data set [2], the “Androgenic Potency (activity of corresponding alcohol)” value is reported as 1.0 (assigned).
For `CCCCC1CCC(C(=O)O[C@H]2CC[C@H]3[C@H]4[C@H]([C@H](C)C[C@]23C)[C@H]2CCC(=O)C=C2C[C@H]4C)CC1` (stereo partly drawn) [CDB-4386, 7α, 11α-Dimethyl-19-nortestosterone-17β-bucyclate, reference compound], the “ventral prostate weight over time after single subcutaneous injection (in words)” value in data set [3] (0.6 mg in 0.2 ml, both oily and aqueous carriers, evaluation discontinued at 8 weeks, FIG. 8) was “inactive”. For the same compound, the “activity in potency and duration after subcutaneous injection (in words), FIG. 5” value in data set [3] (0.6 mg/0.2 ml, aqueous suspension or sesame oil, ventral prostate weight) was “relatively low activity”. For the same compound, the “activity after subcutaneous administration (in words)” value in data set [2] (subcutaneous injection daily for 7 days in 10% ethanol/sesame oil, ventral prostate weight) is listed as “weak activity”.

Source of the values: US7196074B2, “Methods of making, using and pharmaceutical formulations comprising 7α, 11β-dimethyl-17β-hydroxyestra-4, 14-dien-3-one and 17 esters thereof” (The United States of America as represented by the …, priority 2000, dated 2007).
